The assay concerns the target ATP-binding cassette sub-family C member 11 (Homo sapiens) (UniProt Q96J66). Briefly: TP_TRANSPORTER: transport into inside-out membrane vesicles in membrane vesicle from MRP8-2-expressing LLC-PK1 cells. In kind it is functional, cell membranes.

ATP-binding cassette sub-family C member 11 (Homo sapiens), sequence (Q96J66 whole entry): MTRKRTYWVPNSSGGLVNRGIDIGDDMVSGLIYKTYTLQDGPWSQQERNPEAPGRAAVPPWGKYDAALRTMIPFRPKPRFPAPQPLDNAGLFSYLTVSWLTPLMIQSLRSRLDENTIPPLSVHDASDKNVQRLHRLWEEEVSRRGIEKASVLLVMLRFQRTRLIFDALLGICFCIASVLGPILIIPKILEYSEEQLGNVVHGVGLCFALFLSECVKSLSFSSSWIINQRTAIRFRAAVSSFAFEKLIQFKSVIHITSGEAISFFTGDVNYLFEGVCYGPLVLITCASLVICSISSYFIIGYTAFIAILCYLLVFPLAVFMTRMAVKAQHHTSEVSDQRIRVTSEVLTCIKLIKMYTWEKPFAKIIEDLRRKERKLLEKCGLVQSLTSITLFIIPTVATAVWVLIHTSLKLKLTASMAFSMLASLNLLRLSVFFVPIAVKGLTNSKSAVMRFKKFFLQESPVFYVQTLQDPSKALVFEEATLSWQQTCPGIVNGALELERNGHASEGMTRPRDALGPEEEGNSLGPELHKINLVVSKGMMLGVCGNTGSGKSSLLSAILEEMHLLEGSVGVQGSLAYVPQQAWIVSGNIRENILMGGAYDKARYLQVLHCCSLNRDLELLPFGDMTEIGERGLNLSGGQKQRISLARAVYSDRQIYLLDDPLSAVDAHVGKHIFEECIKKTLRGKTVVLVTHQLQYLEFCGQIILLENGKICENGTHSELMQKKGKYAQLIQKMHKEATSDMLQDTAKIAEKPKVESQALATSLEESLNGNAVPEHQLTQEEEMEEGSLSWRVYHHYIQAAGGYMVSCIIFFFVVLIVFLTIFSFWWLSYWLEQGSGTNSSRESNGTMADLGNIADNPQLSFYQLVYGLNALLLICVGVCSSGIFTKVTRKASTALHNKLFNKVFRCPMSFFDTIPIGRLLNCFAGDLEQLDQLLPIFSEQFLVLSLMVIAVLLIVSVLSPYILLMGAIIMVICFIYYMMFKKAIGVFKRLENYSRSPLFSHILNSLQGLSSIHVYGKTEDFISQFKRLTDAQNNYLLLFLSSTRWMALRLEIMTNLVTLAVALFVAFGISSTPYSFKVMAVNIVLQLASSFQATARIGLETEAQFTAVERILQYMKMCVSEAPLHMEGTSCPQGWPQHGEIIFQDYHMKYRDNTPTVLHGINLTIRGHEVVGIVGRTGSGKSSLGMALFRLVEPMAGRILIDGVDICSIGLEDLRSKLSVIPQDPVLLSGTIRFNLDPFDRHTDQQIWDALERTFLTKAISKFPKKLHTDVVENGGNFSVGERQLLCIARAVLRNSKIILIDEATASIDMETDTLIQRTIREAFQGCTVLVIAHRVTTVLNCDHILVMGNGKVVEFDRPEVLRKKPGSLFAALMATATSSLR

As for `O=c1[nH]c(=O)n([C@H]2C[C@H](O)[C@@H](COP(=O)(O)O)O2)cc1F`, the Activity entry was “substrate []”.
